Test results from patent US7439245B2, “Compounds” (Glaxo Group Limited, priority 2003, dated 2008).

Molecular target: T1, human cloned 5-HT6 receptors (Homo sapiens, UniProt P50406)
T1 construct: expressed in transfected cells
Test: 5-HT6 receptor affinity (procedures outlined in WO98/27081)
Format: binding
Settings: read-out: pKi values at human cloned 5-HT6 receptors (converted)
Excerpt: Compounds can be tested following the procedures outlined in WO98/27081.

T1 sequence (P50406 whole entry): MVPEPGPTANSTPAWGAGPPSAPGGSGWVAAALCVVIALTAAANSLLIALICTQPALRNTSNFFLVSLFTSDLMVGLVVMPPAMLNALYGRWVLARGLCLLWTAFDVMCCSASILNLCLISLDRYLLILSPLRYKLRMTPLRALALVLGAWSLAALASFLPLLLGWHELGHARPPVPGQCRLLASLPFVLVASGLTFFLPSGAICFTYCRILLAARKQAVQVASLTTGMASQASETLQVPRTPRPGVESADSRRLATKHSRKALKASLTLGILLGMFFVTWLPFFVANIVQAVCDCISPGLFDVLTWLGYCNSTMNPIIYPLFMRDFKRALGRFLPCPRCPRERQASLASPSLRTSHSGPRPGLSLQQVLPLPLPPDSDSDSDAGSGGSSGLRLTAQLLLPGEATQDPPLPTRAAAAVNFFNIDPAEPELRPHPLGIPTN

O=S(=O)(c1ccccc1)c1cccc(N2CCNCC2)c1 [Example E1, 1-(3-Phenylsulfonyl-phenyl)piperazine]
Ki: < 10 nM

O=S(=O)(c1ccccc1)c1cccc(N2CCNCC2)c1Cl [Example E2, 1-(3-Phenylsulfonyl-2-chlorophenyl)piperazine]
Ki: < 10 nM
